# The source made the active and inactive calls. No cut-off for these calls is given here.
# What was measured:
# Escherichia coli [1] = experiment: Antibiofilm activity against Escherichia coli ATCC 25922 at 2 times MIC after 24 hrs by crystal violet staining based assay; format: functional, organism-based
# Escherichia coli [2] = experiment: Induction of membrane disruption in Escherichia coli ATCC 25922 assessed as fracture in membrane at 4 times of MIC after 2 hrs by SEM analysis; format: functional, organism-based
# Escherichia coli [3] = experiment: Ratio of antibacterial activity against Escherichia coli ATCC 25922 in presence of FeCl3 to antibacterial activity against Escherichia coli ATCC 25922; format: functional
# [4] = Selectivity index, ratio of MHC10 for human RBC to geometric mean of peptide MIC for gram positive bacteria; format: toxicity; conditions: human red blood cells, read-out: Selectivity Index
# Escherichia coli [5] = experiment: Antibacterial activity against Escherichia coli ATCC 25922 after 18 hrs by CLSI based broth microdilution method; format: functional; conditions: ATCC 25922, 18 h
# Staphylococcus aureus [6] = experiment: Antibacterial activity against methicillin-resistant Staphylococcus aureus 936 after 18 hrs by CLSI based broth microdilution method; format: functional; conditions: Staphylococcus aureus, 936, 18 h
# Escherichia coli [7] = experiment: Induction of membrane disruption in Escherichia coli ATCC 25922 assessed as degeneration in membrane at 4 times of MIC after 2 hrs by SEM analysis; format: functional, organism-based
# Escherichia coli [8] = experiment: Antibiofilm activity against Escherichia coli ATCC 25922 after 24 hrs by crystal violet staining based assay; format: functional, organism-based
# Pseudomonas aeruginosa [9] = experiment: Potentiation of polymyxin B-induced antibacterial activity against Pseudomonas aeruginosa ATCC 27853 assessed as FICI after 18 hrs by checker board assay; format: functional
# Escherichia coli [10] = experiment: Antibacterial activity against Escherichia coli ATCC 25922 at 0.5 times MIC incubated for 18 hrs measured for 15 passages by CLSI based broth microdilution method; format: functional, organism-based
# Escherichia coli [11] = experiment: Potentiation of rifampicin-induced antibacterial activity against Escherichia coli ATCC 25922 assessed as FICI after 18 hrs by checker board assay; format: functional
# Escherichia coli [12] = experiment: Antimicrobial activity against Escherichia coli ATCC 25922 at 1 mM preincubated for 6 hrs in presence of 2000 ug/ml trypsin and measured after 18 hrs by microplate reader analysis; format: functional, organism-based
# Bacillus subtilis = experiment: Antibacterial activity against Bacillus subtilis ATCC 23857 after 18 hrs by CLSI based broth microdilution method; format: functional; conditions: ATCC 23857, 18 h
# [13] = Selectivity index, ratio of MHC10 for human RBC to geometric mean of peptide MIC for gram negative bacteria; format: toxicity; conditions: human red blood cells, read-out: Selectivity Index
# Escherichia coli [14] = experiment: Disruption of membrane integrity in Escherichia coli ATCC 25922 assessed as membrane damage by measuring PI fluorescence at 4 times of MIC incubated for 1 hr by PI dye based flow cytometric analysis (reference value: 1.35%); format: functional
# Staphylococcus aureus [15] = experiment: Ratio of antibacterial activity against Staphylococcus aureus ATCC 25923 in presence of NaCl to antibacterial activity against Staphylococcus aureus ATCC 25923; format: functional
# Escherichia coli [16] = experiment: Ratio of antibacterial activity against Escherichia coli ATCC 25922 in presence of KCl to antibacterial activity against Escherichia coli ATCC 25922; format: functional
# Escherichia coli [17] = experiment: Potentiation of polymyxin B-induced antibacterial activity against Escherichia coli ATCC 25922 assessed as FICI after 18 hrs by checker board assay; format: functional
# Klebsiella pneumoniae [18] = experiment: Potentiation of rifampicin-induced antibacterial activity against Klebsiella pneumoniae ATCC 700603 assessed as FICI after 18 hrs by checker board assay; format: functional
# Erythrocyte = experiment: Hemolytic activity in human RBC measured after 1 hr by microplate reader analysis; format: ADME, cell-based
# Pseudomonas aeruginosa [19] = experiment: Antibacterial activity against Pseudomonas aeruginosa ATCC 27853 after 18 hrs by CLSI based broth microdilution method; format: functional; conditions: ATCC 27853, 18 h
# Escherichia coli [20] = experiment: Induction of membrane disruption in Escherichia coli ATCC 25922 assessed as corrugated membrane surface at 4 times of MIC after 2 hrs by SEM analysis; format: functional, organism-based
# Escherichia coli [21] = experiment: Antimicrobial activity against Escherichia coli ATCC 25922 at 1 mM preincubated for 6 hrs in presence of 2 ug/ml chymotrypsin and measured after 18 hrs by microplate reader analysis; format: functional, organism-based
# Pseudomonas aeruginosa [22] = experiment: Antibiofilm activity against Pseudomonas aeruginosa ATCC 27853 at 0.25 to 2 times of MIC after 24 hrs by crystal violet staining based assay; format: functional, organism-based
# Staphylococcus aureus [23] = experiment: Ratio of antibacterial activity against Staphylococcus aureus ATCC 25923 in presence of MgCl2 to antibacterial activity against Staphylococcus aureus ATCC 25923; format: functional
# Staphylococcus aureus [24] = experiment: Ratio of antibacterial activity against Staphylococcus aureus ATCC 25923 in presence of FeCl3 to antibacterial activity against Staphylococcus aureus ATCC 25923; format: functional
# Escherichia coli [25] = experiment: Antibacterial activity against Escherichia coli ATCC 43837 after 18 hrs by CLSI based broth microdilution method; format: functional; conditions: ATCC 43837, 18 h
# Staphylococcus aureus [26] = experiment: Antibiofilm activity against Staphylococcus aureus ATCC 25923 after 24 hrs by crystal violet staining based assay; format: functional, organism-based
# Escherichia coli [27] = experiment: Ratio of MIC for Escherichia coli ATCC 25922 preincubated for 6 hrs in presence of 10% mouse serum and measured after 18 hrs to MIC for antibacterial activity against Escherichia coli ATCC 25922 after 18 hrs; format: functional
# Escherichia coli [28] = experiment: Induction of inner membrane permeabilization in Escherichia coli ATCC 43837 assessed as increase in ONPG release at 1 to 2 times of MIC by ONPG dye based assay; format: organism-based
# Escherichia coli [29] = experiment: Ratio of antibacterial activity against Escherichia coli ATCC 25922 in presence of MgCl2 to antibacterial activity against Escherichia coli ATCC 25922; format: functional
# Klebsiella pneumoniae [30] = experiment: Potentiation of polymyxin B-induced antibacterial activity against Klebsiella pneumoniae ATCC 700603 assessed as FICI after 18 hrs by checker board assay; format: functional
# Escherichia coli [31] = experiment: Ratio of antibacterial activity against Escherichia coli ATCC 25922 in presence of NaCl to antibacterial activity against Escherichia coli ATCC 25922; format: functional
# Staphylococcus aureus [32] = experiment: Ratio of antibacterial activity against Staphylococcus aureus ATCC 25923 in presence of KCl to antibacterial activity against Staphylococcus aureus ATCC 25923; format: functional
# Escherichia coli [33] = experiment: Disruption of membrane integrity in Escherichia coli ATCC 25922 assessed as membrane damage by measuring PI fluorescence incubated for 1 hr by PI dye based flow cytometric analysis; format: functional, organism-based
# Pseudomonas aeruginosa [34] = experiment: Antibiofilm activity against Pseudomonas aeruginosa ATCC 27853 after 24 hrs by crystal violet staining based assay; format: functional, organism-based
# Escherichia coli [35] = experiment: Induction of ROS generation in Escherichia coli ATCC 25922; format: functional, organism-based
# Escherichia coli [36] = experiment: Induction of membrane disruption in Escherichia coli ATCC 25922 assessed as rough membrane surface at 4 times of MIC after 2 hrs by SEM analysis; format: functional, organism-based
# Pseudomonas aeruginosa [37] = experiment: Potentiation of rifampicin-induced antibacterial activity against Pseudomonas aeruginosa ATCC 27853 assessed as FICI after 18 hrs by checker board assay; format: functional
# Escherichia coli [38] = experiment: Disruption of membrane integrity in Escherichia coli ATCC 25922 assessed as membrane damage by measuring PI fluorescence at 2 times of MIC incubated for 1 hr by PI dye based flow cytometric analysis (reference value: 1.35%); format: functional
# Staphylococcus aureus [39] = experiment: Antibacterial activity against Staphylococcus aureus ATCC 25923 after 18 hrs by CLSI based broth microdilution method; format: functional; conditions: ATCC 25923, 18 h
structure (smiles),measurement,setting,value
CCCC(=O)NC(Cc1cn(CCCC[C@H](NC(C)=O)C(=O)NCC(=O)N[C@@H](CC(C)C)C(=O)N[C@@H](CC(C)C)C(=O)N[C@H](CCCCN)C(=O)N[C@@H](CCCNC(=N)N)C(=O)N[C@H](C(=O)N[C@H](CCCCN)C(=O)N[C@H](C(=O)N[C@@H](CC(C)C)C(=O)N[C@@H](CC(C)C)C(N)=O)[C@@H](C)O)[C@@H](C)CC)nn1)C(=O)NCC(=O)N[C@@H](CC(C)C)C(=O)N[C@@H](CC(C)C)C(=O)N[C@H](CCCCN)C(=O)N[C@@H](CCCNC(=N)N)C(=O)N[C@H](C(=O)N[C@H](CCCCN)C(=O)N[C@H](C(=O)N[C@@H](CC(C)C)C(=O)N[C@@H](CC(C)C)C(N)=O)[C@@H](C)O)[C@@H](C)CC (some centres not stated),inhibition,Escherichia coli [1],Active
same,Activity,Escherichia coli [2],Active
same,Ratio,Escherichia coli [3],2 - 4
same,selectivity ratio,[4],5.91
same,MIC,Escherichia coli [5],16 µM
same,MIC,Staphylococcus aureus [6],128 µM
same,Activity,Escherichia coli [7],Active
same,inhibition,Escherichia coli [8],Dose-dependent effect
same,fractional inhibitory concentration index (FICI),Pseudomonas aeruginosa [9],0.375
same,Activity,Escherichia coli [10],Active
same,fractional inhibitory concentration index (FICI),Escherichia coli [11],0.3125
same,Activity,Escherichia coli [12],Active
same,MIC,Bacillus subtilis,4 µM
same,selectivity ratio,[13],32
same,Activity,Escherichia coli [14],43.2%
same,Ratio,Staphylococcus aureus [15],2 - 4
same,Ratio,Escherichia coli [16],2 - 4
same,fractional inhibitory concentration index (FICI),Escherichia coli [17],0.3125
same,fractional inhibitory concentration index (FICI),Klebsiella pneumoniae [18],0.3125
same,MHC10,Erythrocyte,> 256 µM
same,MIC,Pseudomonas aeruginosa [19],8 µM
same,Activity,Escherichia coli [20],Active
same,Activity,Escherichia coli [21],Active
same,inhibition,Pseudomonas aeruginosa [22],Active
same,Ratio,Staphylococcus aureus [23],2 - 4
same,Ratio,Staphylococcus aureus [24],2 - 4
same,MIC,Escherichia coli [25],8 µM
same,inhibition,Staphylococcus aureus [26],Dose-dependent effect
same,Ratio,Escherichia coli [27],1
same,Activity,Escherichia coli [28],Active
same,Ratio,Escherichia coli [29],2 - 4
same,fractional inhibitory concentration index (FICI),Klebsiella pneumoniae [30],0.1875
same,Ratio,Escherichia coli [31],2 - 4
same,Ratio,Staphylococcus aureus [32],2 - 4
same,Activity,Escherichia coli [33],Dose-dependent effect
same,inhibition,Pseudomonas aeruginosa [34],Dose-dependent effect
same,Activity,Escherichia coli [35],Active
same,Activity,Escherichia coli [36],Active
same,fractional inhibitory concentration index (FICI),Pseudomonas aeruginosa [37],0.375
same,Activity,Escherichia coli [38],21.2%
same,MIC,Staphylococcus aureus [39],128 µM
CCCCCCCCCCCC(=O)NC(Cc1cn(CCCC[C@H](NC(C)=O)C(=O)NCC(=O)N[C@@H](CC(C)C)C(=O)N[C@@H](CC(C)C)C(=O)N[C@H](CCCCN)C(=O)N[C@@H](CCCNC(=N)N)C(=O)N[C@H](C(=O)N[C@H](CCCCN)C(=O)N[C@H](C(=O)N[C@@H](CC(C)C)C(=O)N[C@@H](CC(C)C)C(N)=O)[C@@H](C)O)[C@@H](C)CC)nn1)C(=O)NCC(=O)N[C@@H](CC(C)C)C(=O)N[C@@H](CC(C)C)C(=O)N[C@H](CCCCN)C(=O)N[C@@H](CCCNC(=N)N)C(=O)N[C@H](C(=O)N[C@H](CCCCN)C(=O)N[C@H](C(=O)N[C@@H](CC(C)C)C(=O)N[C@@H](CC(C)C)C(N)=O)[C@@H](C)O)[C@@H](C)CC (some centres not stated),inhibition,Escherichia coli [1],Active
same,Activity,Escherichia coli [2],Active
same,Ratio,Escherichia coli [3],2 - 4
same,selectivity ratio,[4],1.85
same,MIC,Escherichia coli [5],8 µM
same,MIC,Staphylococcus aureus [6],16 µM
same,Activity,Escherichia coli [7],Active
same,inhibition,Escherichia coli [8],Dose-dependent effect
same,fractional inhibitory concentration index (FICI),Pseudomonas aeruginosa [9],0.1875
same,Activity,Escherichia coli [10],Active
same,fractional inhibitory concentration index (FICI),Escherichia coli [11],0.5625
same,Activity,Escherichia coli [12],Active
same,MIC,Bacillus subtilis,2 µM
same,selectivity ratio,[13],2
same,Activity,Escherichia coli [14],88.9%
same,Ratio,Staphylococcus aureus [15],2 - 4
same,Ratio,Escherichia coli [16],2 - 4
same,fractional inhibitory concentration index (FICI),Escherichia coli [17],0.3125
same,fractional inhibitory concentration index (FICI),Klebsiella pneumoniae [18],0.5
same,MHC10,Erythrocyte,16 µM
same,MIC,Pseudomonas aeruginosa [19],8 µM
same,Activity,Escherichia coli [20],Active
same,Activity,Escherichia coli [21],Active
same,inhibition,Pseudomonas aeruginosa [22],Active
same,Ratio,Staphylococcus aureus [23],2 - 4
same,Ratio,Staphylococcus aureus [24],2 - 4
same,MIC,Escherichia coli [25],8 µM
same,inhibition,Staphylococcus aureus [26],Dose-dependent effect
same,Ratio,Escherichia coli [27],4
same,Activity,Escherichia coli [28],Active
same,Ratio,Escherichia coli [29],2 - 4
same,fractional inhibitory concentration index (FICI),Klebsiella pneumoniae [30],0.3125
same,Ratio,Escherichia coli [31],2 - 4
same,Ratio,Staphylococcus aureus [32],2 - 4
same,Activity,Escherichia coli [33],Dose-dependent effect
same,inhibition,Pseudomonas aeruginosa [34],Dose-dependent effect
same,Activity,Escherichia coli [35],inactive
same,Activity,Escherichia coli [36],Active
same,fractional inhibitory concentration index (FICI),Pseudomonas aeruginosa [37],0.3125
same,Activity,Escherichia coli [38],60.7%
same,MIC,Staphylococcus aureus [39],8 µM

# Reference: ChEMBL document CHEMBL4359906, “Design and synthesis of new N-terminal fatty acid modified-antimicrobial peptide analogues with potent in vitro biological activity” (Eur J Med Chem, 2019)
